From PubChem BioAssay (NCI)
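Cells were grown in 96-well plates and exposed to each compound for 48 hours at five concentrations; endpoints were interpolated linearly between bracketing concentrations, or set to the highest concentration if not reached. TGI: total growth inhibition.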

Assays:
Experiment in all cases: NCI tumour cell line growth inhibition, 48 h
[1] = test system: MALME-3M melanoma
[2] = test system: RXF 393 renal
[3] = test system: ACHN renal
[4] = test system: IGROV1 ovarian
[5] = test system: M19-MEL melanoma
[6] = test system: COLO 205 colon
[7] = test system: SR leukemia
[8] = test system: SK-OV-3 ovarian
[9] = test system: TK-10 renal
[10] = test system: A498 renal
[11] = test system: CCRF-CEM leukemia
[12] = test system: OVCAR-8 ovarian
[13] = test system: UO-31 renal
[14] = test system: OVCAR-3 ovarian
[15] = test system: NCI-H522 lung
[16] = test system: HCT-116 colon
[17] = test system: SW-620 colon
[18] = test system: SK-MEL-5 melanoma
[19] = test system: EKVX NSCLC
[20] = test system: HCC-2998 colon
[21] = test system: U251 CNS
[22] = test system: HT29 colon
[23] = test system: OVCAR-4 ovarian
[24] = test system: SF-295 CNS
[25] = test system: HL-60(TB) leukemia
[26] = test system: SNB-78 CNS
[27] = test system: CAKI-1 renal
[28] = test system: NCI-H226 lung
[29] = test system: XF 498 CNS
[30] = test system: KM20L2 colon
[31] = test system: HOP-18 NSCLC
[32] = test system: UACC-62 melanoma
[33] = test system: OVCAR-5 ovarian
[34] = test system: LXFL 529 NSCLC
[35] = test system: SF-539 CNS
[36] = test system: M14 melanoma
[37] = test system: NCI-H23 lung
[38] = test system: KM12 colon
[39] = test system: SNB-19 CNS
[40] = test system: LOX IMVI melanoma
[41] = test system: DLD-1 colon
[42] = test system: SNB-75 CNS
[43] = test system: SF-268 CNS
[44] = test system: 786-0 renal
[45] = test system: A549 NSCLC
[46] = test system: NCI-H460 lung
[47] = test system: K-562 leukemia
[48] = test system: HCT-15 colon
[49] = test system: MOLT-4 leukemia
[50] = test system: DMS 114 small cell lung
[51] = test system: DMS 273 small cell lung
[52] = test system: UACC-257 melanoma
[53] = test system: SK-MEL-28 melanoma
[54] = test system: HOP-62 NSCLC
[55] = test system: SN12C renal
[56] = test system: SK-MEL-2 melanoma
[57] = test system: RPMI-8226 leukemia
[58] = test system: HOP-92 NSCLC
[59] = test system: RXF-631 renal
[60] = test system: MDA-MB-435
[61] = test system: DU-145 prostate
[62] = test system: NCI/ADR-RES ovarian
[63] = test system: T-47D breast
[64] = test system: MDA-MB-231 breast
[65] = test system: HS 578T breast
[66] = test system: MCF7 breast
[67] = test system: PC-3 prostate
[68] = test system: MDA-N
[69] = test system: BT-549 breast

Measured: TGI

COc1ccc(C(=O)C(CC2C(=O)NC(=O)NC2=O)c2ccc(OC)cc2)cc1 (stereo not drawn)
not listed: [57] | [58] | [59] | [60] | [61] | [62] | [63] | [64] | [65] | [66] | [67] | [68] | [69]
> 100 µM: all other assays above

CN=C(/N=c1\ssc(=NC)n1C)N(C)C
not listed: [1] | [11] | [16] | [26] | [48] | [54] | [56] | [60] | [61] | [62] | [63] | [64] | [65] | [66] | [67] | [68] | [69]
> 100 µM: all other assays above

COc1ccc(CCn2c(=O)c3ccccc3n(C)c2=O)cc1
95.2 µM: [15]
50.1 µM: [6]
85.6 µM: [56]
not listed: [2] | [7] | [25] | [28] | [31] | [40] | [48] | [51] | [58] | [59] | [60] | [61] | [62] | [63] | [64] | [65] | [66] | [67] | [68] | [69]
> 100 µM: all other assays above

Cc1cc(=O)[nH]c(NN2C(Cl)C(=O)C2c2ccc([N+](=O)[O-])cc2)n1 (stereo not drawn)
27.1 µM: [53]
82.5 µM: [12]
18.8 µM: [46]
31.1 µM: [20]
16.1 µM: [4]
30.9 µM: [57]
43.1 µM: [13]
14.1 µM: [2]
20.6 µM: [14]
24.5 µM: [55]
11.5 µM: [32]
29.7 µM: [9]
43.8 µM: [22]
27.3 µM: [18] | [58]
19.2 µM: [40]
37.6 µM: [52]
36.7 µM: [21]
17.3 µM: [5]
22.5 µM: [48]
35.9 µM: [6]
20.8 µM: [34]
56.7 µM: [30]
43.2 µM: [49]
9.11 µM: [42]
28.7 µM: [50]
24.9 µM: [25]
> 100 µM: [39] | [45]
26.1 µM: [37]
34.5 µM: [7]
52.8 µM: [33]
78.8 µM: [19]
27 µM: [35]
22.3 µM: [16]
79.7 µM: [17]
25 µM: [26]
33.7 µM: [3]
15 µM: [47]
23 µM: [36] | [54]
23.9 µM: [31]
41 µM: [43]
28.8 µM: [23]
6.6 µM: [11]
22.7 µM: [51]
19.6 µM: [56]

C[Si](C)(C)/C=C\CCO
not listed: [23] | [27] | [28] | [54] | [60] | [61] | [62] | [63] | [64] | [65] | [66] | [67] | [68] | [69]
> 100 µM: all other assays above

O=C1CC(c2[nH]nc3ccccc23)C(=O)N1c1ccccc1 (stereo not drawn)
> 80.1 µM: [47]
70.4 µM: [25]
> 71.8 µM: [11]
> 100 µM: all other assays above

Cc1ccc(S(=O)(=O)c2ccccc2[N+](=O)[O-])cc1
not listed: [6] | [7] | [15] | [31] | [39] | [40] | [43] | [55] | [58] | [60] | [61] | [62] | [63] | [64] | [65] | [66] | [67] | [68] | [69]
> 100 µM: all other assays above
